Measured values as given in patent publication US20240390318A1, “PHARMACEUTICAL COMPOSITION COMPRISING CDK INHIBITOR AND ID2 ACTIVATOR FOR PREVENTION OR TREATMENT OF BLADDER CANCER” (THE ASAN FOUNDATION, priority 2021, published 2024).

Assays:
[1] = tested on: bladder cancer cell lines; test: Cell proliferation by MTT assay; type: cell-based, human; conditions: for growth of BC cells: bladder cancer cell lines, apigenin with increasing dosage; for cell growth, proliferation: low concentrations, single or co-treatment
Method: (§1) Human BC cell lines T24, 5637, HT1197, HT1376, and RT4 were cultured in Eagle's Minimum Essential (for HT1197 and HT1376), McCoy's 5a Medium Modified (for T24 and RT4), and RPMI-1640 (for […]) medium (ATCC, Manassas, VA, USA) including 10% heat-inactivated FBS (Hyclone, Pittsburgh, PA, USA) and penicillin/streptomycin (Cellgro, Pittsburgh, PA, USA). 40 μM apigenin (Sigma-Aldrich, Burlington, MA, USA), 4-hydroxychalcone (Sigma-Aldrich), and diosmetin (Sigma-Aldrich) were treated for 24 hours to activate ID2 expression, and 20 μM RO-3306 (Sigma-Aldrich) and CGP74514A (Sigma-Aldrich) were treated for 24 hours to inhibit CDK1 activity.
(§2) The cell proliferation ability was determined by MTT assay (Sigma-Aldrich). Apoptosis was analyzed by annexin-V fluorescein isothiocyanate (FITC)/propidium iodide (PI) assay. Cells were subjected to trypsin, harvested, washed with PBS, resuspended in annexin-V binding buffer (10 mM HEPES, pH 7.4, 140 mM NaCl, 2.5 mM CaCl2)), and labeled with Annexin-V FITC and PI. FITC- and/or PI-labeled cell colonies were quantified by flow cytometry (Beckman Coulter, Brea, CA, USA).

[2] = tested on: bladder cancer cell lines; test: Apoptosis by annexin-V FITC/PI flow cytometry; type: cell-based, human; conditions: for apoptosis of BC cells: bladder cancer cell lines, apigenin time-dependent treatment; for apoptosis of bladder cancer cells: low concentrations, single or co-treatment
Method: as §1, §2

[3] = tested on: bladder cancer cell lines; test: Tumor sphere formation; type: cell-based, human
Method: To form tumor spheres, BC cells were resuspended in a single-cell suspension mixed with serum-free keratinocyte growth medium (Gibco, Waltham, MA, USA) and growth factor-reduced Matrigel (BD Biosciences, Mountain View, CA, USA) in a 1:1 ratio, and cultured on ultra-low attachment plates (Costar, Corning, NY, USA). The size of the tumor sphere was measured for 7 days after the first culture. For quantitative analysis, Image J software (National Institute of Mental Health, Bethesda, MD, USA) was used to measure the circumference of tumor sphere in eight representative regions randomly selected from each group.

[4] = tested on: bladder cancer cell lines; test: Western blot of caspase-3 and PARP cleavage; type: cell-based, human; conditions: for cleavage of caspase-3 and PARP: low concentrations, single or co-treatment
Method: as §1
(§3) Cell extracts (30 μg) were prepared in RIPA lysis buffer (Santa Cruz Biotechnology) supplemented with a protease and phosphatase inhibitor cocktail (Roche, Indianapolis, IN, USA) and isolated in a 12% SDS-PAGE gel. An expression level of the labeled protein was assessed by probing with the following antibodies: ID2 (NBP-88630; Novusbio, Centennial, CO, USA), TFCP2L1 (OAAB09732; Aviva Systems Biology, San Diego, CA, USA), CDK1 (sc-54; Santa Cruz), PARP (9542; Cell Signaling), Cleaved Caspase-3 (9661; Cell Signaling), b-ACTIN (A5441; Sigma-Aldrich), and Flag-epitope (F3165; Sigma-Aldrich).

[5] = tested on: bladder cancer cell lines; test: In vitro cell invasion (Transwell, Matrigel); type: cell-based, human
Method: The upper chamber of the Transwell permeable support (Corning Inc, Corning, NY, USA) with an 8.0 μm pore polycarbonate membrane filter was coated with Matrigel (BD Biosciences) diluted in a 1:5 ratio. BC cells were loaded into the upper chamber at 2×10^4 cell/well concentrations in 100 μL of serum-free DMEM, and culture medium containing 3% FBS was filled into the lower chamber. Cell invasiveness was evaluated by culturing cells at 37° C. for 24 hours in a 5% CO2 incubator and then counting the number of cells that migrated to the bottom of the membrane. Three fields of view (magnification, ×200) were randomly selected from each transwell chamber for quantitative analysis.

[6] = tested on: HT1376 cells; test: Orthotopic xenograft BC animal model, tumor size and histological examination; type: in vivo; conditions: NSG mice; for tumor growth suppression/inhibition: i.p. apigenin 50 mg/kg and/or RO-3306 4 mg/kg, 6 times at 4-day intervals
Method: (§4) All animal experiments conducted in this experiment were carried out with the approval of the Institutional Animal Care Committee (IACUC-2020-12-209) of the University of Ulsan College of Medicine. 8-week-old male NOD/[…]) mice were purchased from GEM Biosciences Inc. (Cheongju, South Korea). 100 μl of 1.0×10^6 HT1376 BC cells were injected into the anterior wall of the bladder and the outer layer of the dome using a […] and a 26-gauge needle in the mice adapted for 1 week at the Animal Laboratory of Asan Medical Center, Seoul. Three weeks after orthotopic transplantation of BC cells, mice were injected intraperitoneally with RO-3306 (4 mg/kg) and apigenin (50 mg/kg), either alone or in combination, for 6 times at 4-day intervals. Mice and injection sites were monitored every 2 days for 45 days after the initial administration of BC cells. Tumor size was measured at the endpoint, and the tumor site was recovered by incision to perform histological examination or immunofluorescence assay. Mice were randomly assigned to the treatment group (N=5 or 10) and randomized to the sequence of cell transplantation, treatment, evaluation, and daily checkup. Investigations related to tumor size measurement and histological assessment were conducted as blind tests for the treatment group. For histological analysis, the bladder of xenograft mice was fixed with 4% paraformaldehyde for 1 day. After 24 hours of cryoprotection in 30% sucrose, each bladder was cut into 20 μm sections using cryostat (Leica, Lussloch, Germany) and stained with hematoxylin and eosin (H&E). For immunofluorescence (IF) staining, the bladder was stained with antibodies specific to ID2 (NBP-88630; Novusbio), TFCP2L1 (OAAB09732; Aviva Systems Biology), CDK1 (ab131450; Abcam, Cambridge, MA, USA), CD44 (ab78960; Abcam), and Cytokeratin 14 (KRT14; Ab7800). […] The stained samples were photographed using an inverted fluorescence microscope (EVOS FL Color Imaging System, Life Technologies).

[7] = tested on: ID2; test: ID2 expression in bladder cancer cells (qPCR, Western blot); type: cell-based, human; conditions: HT1197 and HT1376 cells; ID2 activators 40 μM, CDK1 inhibitors 20 μM, 24 hours
Method: as §1
Real-time quantification PCR was used to perform quantitative analysis of gene expression. Total RNA was extracted using the QIAGEN RNeasy RNA isolation kit (QIAGEN, Valencia, CA, USA), and 50 ng of total RNA was reverse transcribed using Taqman Reverse Transcription Reagents (Applied Biosystems, Foster City, CA, USA). Threshold cycles (Ct) were used to determine the relative expression levels of target genes using the 2-DDCt method. The expression of GAPDH was used as an endogenous control gene.
as §3

[8] = tested on: ID2; test: ID2 protein expression in orthotopic xenograft bladder (immunofluorescence); type: in vivo, mice; conditions: HT1376 orthotopic xenograft; RO-3306 4 mg/kg alone or with apigenin 50 mg/kg i.p.
Method: as §4, with “checkup.” for “checkup. Investigations related to tumor size measurement and histological assessment were conducted as blind tests for the treatment group. For histological analysis, the bladder of xenograft mice was fixed with 4% paraformaldehyde for 1 day. After 24 hours of cryoprotection in 30% sucrose, each bladder was cut into 20 μm sections using cryostat (Leica, Lussloch, Germany) and stained with hematoxylin and eosin (H&E). For immunofluorescence (IF) staining, the bladder was stained with antibodies specific to ID2 (NBP-88630; Novusbio), TFCP2L1 (OAAB09732; Aviva Systems Biology), CDK1 (ab131450; Abcam, Cambridge, MA, USA), CD44 (ab78960; Abcam), and Cytokeratin 14 (KRT14; Ab7800).”

[9] = tested on: CDK1; test: CDK1 protein expression in orthotopic xenograft bladder (immunofluorescence); type: in vivo, mice; conditions: HT1376 orthotopic xenograft; RO-3306 4 mg/kg alone or with apigenin 50 mg/kg i.p.
Method: as §4, with “checkup.” for “checkup. Investigations related to tumor size measurement and histological assessment were conducted as blind tests for the treatment group. For histological analysis, the bladder of xenograft mice was fixed with 4% paraformaldehyde for 1 day. After 24 hours of cryoprotection in 30% sucrose, each bladder was cut into 20 μm sections using cryostat (Leica, Lussloch, Germany) and stained with hematoxylin and eosin (H&E). For immunofluorescence (IF) staining, the bladder was stained with antibodies specific to ID2 (NBP-88630; Novusbio), TFCP2L1 (OAAB09732; Aviva Systems Biology), CDK1 (ab131450; Abcam, Cambridge, MA, USA), CD44 (ab78960; Abcam), and Cytokeratin 14 (KRT14; Ab7800).”

[10] = tested on: TFCP2L1; test: TFCP2L1 protein expression in orthotopic xenograft bladder (immunofluorescence); type: in vivo, mice; conditions: HT1376 orthotopic xenograft; RO-3306 4 mg/kg alone or with apigenin 50 mg/kg i.p.
Method: as §4, with “checkup.” for “checkup. Investigations related to tumor size measurement and histological assessment were conducted as blind tests for the treatment group. For histological analysis, the bladder of xenograft mice was fixed with 4% paraformaldehyde for 1 day. After 24 hours of cryoprotection in 30% sucrose, each bladder was cut into 20 μm sections using cryostat (Leica, Lussloch, Germany) and stained with hematoxylin and eosin (H&E). For immunofluorescence (IF) staining, the bladder was stained with antibodies specific to ID2 (NBP-88630; Novusbio), TFCP2L1 (OAAB09732; Aviva Systems Biology), CDK1 (ab131450; Abcam, Cambridge, MA, USA), CD44 (ab78960; Abcam), and Cytokeratin 14 (KRT14; Ab7800).”

Row | SMILES | growth of BC cells [1] | apoptosis of BC cells [2] | tumor sphere forming ability [3] | cell growth, proliferation [1] | cleavage of caspase-3 and poly-(ADP-ribose) polymerase (PARP) ([4]; bladder cancer cell lines) | cleavage of caspase-3 and PARP [4] | apoptosis of bladder cancer cells [2] | invasiveness of BC cells [5] | histological examination: therapeutic effect, size and progression of bladder cancer ([6]; i.p. 6 times at 4-day intervals) | tumor growth suppression/inhibition [6] [%] | expression of ID2 at RNA and protein levels [7] | expression level of ID2 protein [8] | expression of CDK1 protein [9] | expression of TFCP2L1 protein [10]
1 | COc1ccc(-c2cc(=O)c3c(O)cc(O)cc3o2)cc1O [diosmetin] | reduced bladder cancer cell growth | activated apoptosis | decreased tumor forming ability |  |  |  |  |  |  |  |  |  |  | 
2 | O=c1cc(-c2ccc(O)cc2)oc2cc(O)cc(O)c12 [apigenin] | decreased significantly | activated | remarkably inhibit | no significant effect | resulted in cleavage of caspase-3 and poly-(ADP-ribose) polymerase (PARP) | no significant effect | does not induce | remarkably inhibit | therapeutic effect of apigenin on bladder cancer regardless of tumor grade | 74±6.13 | increased |  |  | 
3 | O=C1NC(=NCc2cccs2)S/C1=C\c1ccc2ncccc2c1 [RO-3306] |  |  |  | no significant effect |  | no significant effect | does not induce |  |  | 66.8±2.48 | increased | low | high | high
4 | CCn1cnc2c(Nc3cccc(Cl)c3)nc(N[C@@H]3CCCC[C@@H]3N)nc21 [CGP74514A] |  |  |  |  |  |  |  |  |  |  | increase in ID2 expression |  |  | 
5 | O=C(/C=C/c1ccc(O)cc1)c1ccccc1 [4-hydroxychalcone] | reduced the growth of bladder cancer cells | activated apoptosis | tumor forming ability was reduced |  |  |  |  |  |  |  | increase in ID2 expression |  |  | 
